From US9988371B2, “Benzimidazole analogues and related methods” (The Arizona Board of Regents, on Behalf of the University …, priority 2014, dated 2018)
pIC50: −log10 of the molar value.

Tests used:
[1] = tested on: RET/C634Y transformed NIH3T3 fibroblasts; assay: NIH3T3 RET/C634Y tumors in nude mice; assay type: in vivo, BALB/c nu/nu mice; conditions: 1.0, 3.0 or 10 mg/kg daily, oral gavage
Excerpt: FIG. 8: Anti-tumorigenic activity of Pz-1 in nude mice implanted with RET/C634Y or HRAS(G12V) transformed NIH3T3 fibroblasts. […] Average tumor volume (±SD: standard deviations) is reported. NIH3T3 RET/C634Y (200,000 cells) or NIH3T3 HRAS/G12V (50,000 cells) were inoculated subcutaneously into dorsal portion (both sides) of 6-week-old female BALB/c nu/nu mice (n. 31 mice/cell line) (Jackson Laboratories, Bar Harbor, Me.). After 4 days, before tumors had appeared, animals were randomly assigned to receive Pz-1 (1.0, 3.0 or 10 mg/kg daily) (23 mice/cell line: 8 mice/group for 1.0 and 3.0 mg/kg daily doses and 7 mice for 10 dose mg/kg daily) or vehicle control (8 mice) by oral gavage. Tumor diameters were measured with calipers every 1-2 days. Tumor volumes (V) were calculated by the rotational ellipsoid formula and reported as average volumes±standard deviations. […]
TT cells (7.5×10^6/mouse) were inoculated subcutaneously into dorsal portions (both sides) of 39 SCID mice (Jackson Laboratories, Bar Harbor, Me.). […] Tumor diameters were measured with callipers every week. Tumor volumes (V) were calculated by the rotational ellipsoid formula: V=A×B^2/2 (A=axial diameter; B=rotational diameter) and reported as average volumes±standard deviations. […] Anti-tumorigenic activity of Pz-1 was also assessed in nude mice implanted with RET/C634Y or HRAS(G12V) transformed NIH3T3 fibroblasts. […]

pMAPK = pMAPK immunoblot in TT cells; assay type: cell-based, human; conditions: 1 nM
Experimental: FIG. 3: Photographs of blots showing inhibition of RET protein endogenously expressed in TT cells (human MTC cell line expressing RET/C634W) by indicated concentrations of Pz-1 or vehicle (NT: not treated) and reduced effects in thyroid non-transformed Nthy-ori-3-1 cells. Serum-starved human TT and thyroid non-transformed Nthy-ori-3-1 cell lines were treated for 2 hr with indicated concentrations of Pz-1. 50 μg of total cell lysates were subjected to immunoblotting with anti-phospho-Y1062 (αp1062) and anti-phospho-905 (αpY905) RET antibodies, anti-phospho-MAPK (αpMAPK, T302/Y304), and anti-phospho-SHC (αpSHC, Y317) antibodies. The blots were normalized using anti-RET (αRET) and anti-SHC (αSHC).
The inhibition of RET auto-phosphorylation by Pz-1 was measured in several different cell lines including NIH3T3 fibroblasts expressing RET/C634Y or RET/M918T, TT expressing RET/C634W (MTC), Nthy-ory-3-1 (thyroid, non-transformed with RET; negative control), HEK293/RET/PTC1 (CCDC6-RET that can be found in PTC & lung cancer), HEK293/RET-KIF5B (that can be found in lung cancer), HEK293/RET/PTC3 (NCOA4-RET, that can be found in PTC & lung cancer), and HEK293 transfected with RET/C634R-V804M (FIGS. 1-3). […]
Protein lysates were prepared according to standard procedures. […] Immune complexes were detected with the enhanced chemiluminescence kit (Amersham Pharmacia Biotech, Little Chalfort, UK). […]

CYP3A4 = CYP3A4 (Homo sapiens, UniProt P08684); assay: CYP inhibition; assay type: in vitro ADME; conditions: read-out: CYP 3A4 IC50
Chain of CYP3A4 (P08684 whole entry): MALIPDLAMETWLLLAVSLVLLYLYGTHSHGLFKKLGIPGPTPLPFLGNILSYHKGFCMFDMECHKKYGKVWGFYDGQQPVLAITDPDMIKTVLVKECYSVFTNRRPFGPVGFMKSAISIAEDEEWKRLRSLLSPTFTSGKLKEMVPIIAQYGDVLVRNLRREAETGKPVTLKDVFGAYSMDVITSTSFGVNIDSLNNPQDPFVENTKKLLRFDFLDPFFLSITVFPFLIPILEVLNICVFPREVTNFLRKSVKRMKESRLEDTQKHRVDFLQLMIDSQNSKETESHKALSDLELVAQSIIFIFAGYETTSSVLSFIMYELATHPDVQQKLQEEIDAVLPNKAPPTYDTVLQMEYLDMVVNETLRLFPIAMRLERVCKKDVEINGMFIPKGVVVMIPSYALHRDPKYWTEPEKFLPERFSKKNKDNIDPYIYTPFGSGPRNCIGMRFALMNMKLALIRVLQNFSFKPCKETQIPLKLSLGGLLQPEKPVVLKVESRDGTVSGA

Cn1cc(-c2ccc3c(c2)ncn3-c2ccc(CC(=O)Nc3cc(C(C)(C)C)on3)cc2)cn1 [Pz-1, N-(5-(tert-butyl)isoxazol-3-yl)-2-(4-(5-(1-methyl-1H-pyrazol-4-yl)-1H-benzo[d]imidazol-1-yl)phenyl)acetamide]
formation of tumors induced by RET cells [1]: totally prevented formation of tumors | inhibition of pMAPK (pMAPK): strongly inhibited | pIC50 (CYP3A4): 5.13
